From publication PMC10905675, “INX-315, a Selective CDK2 Inhibitor, Induces Cell Cycle Arrest and Senescence in Solid Tumors” (Cancer Discovery, 2023)

Assays:
Assay in all cases: SelectScreen LanthaScreen Binding
Details in all cases: INX-0315 at 100nM
[1] = biological target: T1, ACVR1 (ALK2) (Homo sapiens, UniProt Q04771)
T1 construct: purchased Thermo Fisher Scientific SelectScreen (plus Nanosyn / Reaction Biology for CDK/cyclin lines)
Summary of the method: (§1)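 Activity and binding formats were run as established by the profiling service; INX-315 entered at one concentration (100 nmol/L, 1% DMSO) before titration over a 1 µmol/L–0.0495 nmol/L range in ten steps.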

[2] = biological target: T2, ACVR1 (ALK2) R206H (Homo sapiens, UniProt Q04771, R206H)
T2 construct: purchased Thermo Fisher Scientific SelectScreen (plus Nanosyn / Reaction Biology for CDK/cyclin lines)
Summary of the method: as §1

[3] = biological target: T3, ALK C1156Y (Homo sapiens, UniProt Q9UM73, C1156Y)
T3 construct: purchased Thermo Fisher Scientific SelectScreen (plus Nanosyn / Reaction Biology for CDK/cyclin lines)
Summary of the method: as §1

[4] = biological target: T4, AMPK (A1/B2/G1) (Homo sapiens, UniProt Q13131)
T4 construct: purchased Thermo Fisher Scientific SelectScreen (plus Nanosyn / Reaction Biology for CDK/cyclin lines)
Summary of the method: as §1

[5] = biological target: T5, ANKK1 (Homo sapiens, UniProt Q8NFD2)
T5 construct: purchased Thermo Fisher Scientific SelectScreen (plus Nanosyn / Reaction Biology for CDK/cyclin lines)
Summary of the method: as §1

[6] = biological target: T6, CDK13/cyclin K (Homo sapiens, UniProt Q14004)
T6 construct: purchased Thermo Fisher Scientific SelectScreen (plus Nanosyn / Reaction Biology for CDK/cyclin lines)
Summary of the method: as §1

[7] = biological target: T7, CDK16 (PCTK1)/cyclin Y (Homo sapiens, UniProt Q00536)
T7 construct: purchased Thermo Fisher Scientific SelectScreen (plus Nanosyn / Reaction Biology for CDK/cyclin lines)
Summary of the method: as §1

[8] = biological target: T8, CDK2/cyclin E1 (Homo sapiens, UniProt P24941)
T8 construct: purchased Millipore 14-475
Summary of the method: as §1

[9] = biological target: T9, CDK5 (Inactive) (Homo sapiens, UniProt Q00535)
T9 construct: purchased Thermo Fisher Scientific SelectScreen (plus Nanosyn / Reaction Biology for CDK/cyclin lines)
Summary of the method: as §1

[10] = biological target: T10, CLK4 (Homo sapiens, UniProt Q9HAZ1)
T10 construct: purchased Thermo Fisher Scientific SelectScreen (plus Nanosyn / Reaction Biology for CDK/cyclin lines)
Summary of the method: as §1

[11] = biological target: T11, DAPK2 (Homo sapiens, UniProt Q9UIK4)
T11 construct: purchased Thermo Fisher Scientific SelectScreen (plus Nanosyn / Reaction Biology for CDK/cyclin lines)
Summary of the method: as §1

[12] = biological target: T12, DYRK2 (Homo sapiens, UniProt Q92630)
T12 construct: purchased Thermo Fisher Scientific SelectScreen (plus Nanosyn / Reaction Biology for CDK/cyclin lines)
Summary of the method: as §1

[13] = biological target: T13, ERN2 (Homo sapiens, UniProt Q76MJ5)
T13 construct: purchased Thermo Fisher Scientific SelectScreen (plus Nanosyn / Reaction Biology for CDK/cyclin lines)
Summary of the method: as §1

[14] = tested on: FLT3 ITD
Summary of the method: as §1

[15] = biological target: T14, HUNK (Homo sapiens, UniProt P57058)
T14 construct: purchased Thermo Fisher Scientific SelectScreen (plus Nanosyn / Reaction Biology for CDK/cyclin lines)
Summary of the method: as §1

[16] = biological target: T15, KIT A829P (Homo sapiens, UniProt P10721, A829P)
T15 construct: purchased Thermo Fisher Scientific SelectScreen (plus Nanosyn / Reaction Biology for CDK/cyclin lines)
Summary of the method: as §1

[17] = biological target: T16, KIT D816V (Homo sapiens, UniProt P10721, D816V)
T16 construct: purchased Thermo Fisher Scientific SelectScreen (plus Nanosyn / Reaction Biology for CDK/cyclin lines)
Summary of the method: as §1

[18] = biological target: T17, KIT Y823D (Homo sapiens, UniProt P10721, Y823D)
T17 construct: purchased Thermo Fisher Scientific SelectScreen (plus Nanosyn / Reaction Biology for CDK/cyclin lines)
Summary of the method: as §1

[19] = biological target: T18, MAP3K10 (MLK2) (Homo sapiens, UniProt Q02779)
T18 construct: purchased Thermo Fisher Scientific SelectScreen (plus Nanosyn / Reaction Biology for CDK/cyclin lines)
Summary of the method: as §1

[20] = biological target: T19, MAP3K11 (MLK3) (Homo sapiens, UniProt Q16584)
T19 construct: purchased Thermo Fisher Scientific SelectScreen (plus Nanosyn / Reaction Biology for CDK/cyclin lines)
Summary of the method: as §1

[21] = biological target: T20, MAP3K14 (NIK) (Homo sapiens, UniProt Q99558)
T20 construct: purchased Thermo Fisher Scientific SelectScreen (plus Nanosyn / Reaction Biology for CDK/cyclin lines)
Summary of the method: as §1

[22] = biological target: T21, MAP3K5 (ASK1) (Homo sapiens, UniProt Q99683)
T21 construct: purchased Thermo Fisher Scientific SelectScreen (plus Nanosyn / Reaction Biology for CDK/cyclin lines)
Summary of the method: as §1

[23] = biological target: T22, MAPK10 (JNK3) (Homo sapiens, UniProt P53779)
T22 construct: purchased Thermo Fisher Scientific SelectScreen (plus Nanosyn / Reaction Biology for CDK/cyclin lines)
Summary of the method: as §1

[24] = biological target: T23, MAPK15 (ERK7) (Homo sapiens, UniProt Q8TD08)
T23 construct: purchased Thermo Fisher Scientific SelectScreen (plus Nanosyn / Reaction Biology for CDK/cyclin lines)
Summary of the method: as §1

[25] = biological target: T24, MAPK9 (JNK2) (Homo sapiens, UniProt P45984)
T24 construct: purchased Thermo Fisher Scientific SelectScreen (plus Nanosyn / Reaction Biology for CDK/cyclin lines)
Summary of the method: as §1

[26] = biological target: T25, MYLK4 (Homo sapiens, UniProt Q86YV6)
T25 construct: purchased Thermo Fisher Scientific SelectScreen (plus Nanosyn / Reaction Biology for CDK/cyclin lines)
Summary of the method: as §1

[27] = biological target: T26, MYO3A (MYO3 alpha) (Homo sapiens, UniProt Q8NEV4)
T26 construct: purchased Thermo Fisher Scientific SelectScreen (plus Nanosyn / Reaction Biology for CDK/cyclin lines)
Summary of the method: as §1

[28] = biological target: T27, MYO3B (MYO3 beta) (Homo sapiens, UniProt Q8WXR4)
T27 construct: purchased Thermo Fisher Scientific SelectScreen (plus Nanosyn / Reaction Biology for CDK/cyclin lines)
Summary of the method: as §1

[29] = biological target: T28, RET G691S (Homo sapiens, UniProt P07949, G691S)
T28 construct: purchased Thermo Fisher Scientific SelectScreen (plus Nanosyn / Reaction Biology for CDK/cyclin lines)
Summary of the method: as §1

[30] = biological target: T29, RIPK2 (Homo sapiens, UniProt O43353)
T29 construct: purchased Thermo Fisher Scientific SelectScreen (plus Nanosyn / Reaction Biology for CDK/cyclin lines)
Summary of the method: as §1

[31] = biological target: T30, STK32B (YANK2) (Homo sapiens, UniProt Q9NY57)
T30 construct: purchased Thermo Fisher Scientific SelectScreen (plus Nanosyn / Reaction Biology for CDK/cyclin lines)
Summary of the method: as §1

[32] = biological target: T31, STK32C (YANK3) (Homo sapiens, UniProt Q86UX6)
T31 construct: purchased Thermo Fisher Scientific SelectScreen (plus Nanosyn / Reaction Biology for CDK/cyclin lines)
Summary of the method: as §1

[33] = biological target: T32, STK33 (Homo sapiens, UniProt Q9BYT3)
T32 construct: purchased Thermo Fisher Scientific SelectScreen (plus Nanosyn / Reaction Biology for CDK/cyclin lines)
Summary of the method: as §1

[34] = biological target: T33, TESK1 (Homo sapiens, UniProt Q15569)
T33 construct: purchased Thermo Fisher Scientific SelectScreen (plus Nanosyn / Reaction Biology for CDK/cyclin lines)
Summary of the method: as §1

[35] = biological target: T34, TLK1 (Homo sapiens, UniProt Q9UKI8)
T34 construct: purchased Thermo Fisher Scientific SelectScreen (plus Nanosyn / Reaction Biology for CDK/cyclin lines)
Summary of the method: as §1

[36] = biological target: T35, TTK (Homo sapiens, UniProt P33981)
T35 construct: purchased Thermo Fisher Scientific SelectScreen (plus Nanosyn / Reaction Biology for CDK/cyclin lines)
Summary of the method: as §1

[37] = biological target: T36, ULK2 (Homo sapiens, UniProt Q8IYT8)
T36 construct: purchased Thermo Fisher Scientific SelectScreen (plus Nanosyn / Reaction Biology for CDK/cyclin lines)
Summary of the method: as §1

[38] = biological target: T37, ZAK (Homo sapiens, UniProt Q9NYL2)
T37 construct: purchased Thermo Fisher Scientific SelectScreen (plus Nanosyn / Reaction Biology for CDK/cyclin lines)
Summary of the method: as §1

T10 sequence (Q9HAZ1 whole entry): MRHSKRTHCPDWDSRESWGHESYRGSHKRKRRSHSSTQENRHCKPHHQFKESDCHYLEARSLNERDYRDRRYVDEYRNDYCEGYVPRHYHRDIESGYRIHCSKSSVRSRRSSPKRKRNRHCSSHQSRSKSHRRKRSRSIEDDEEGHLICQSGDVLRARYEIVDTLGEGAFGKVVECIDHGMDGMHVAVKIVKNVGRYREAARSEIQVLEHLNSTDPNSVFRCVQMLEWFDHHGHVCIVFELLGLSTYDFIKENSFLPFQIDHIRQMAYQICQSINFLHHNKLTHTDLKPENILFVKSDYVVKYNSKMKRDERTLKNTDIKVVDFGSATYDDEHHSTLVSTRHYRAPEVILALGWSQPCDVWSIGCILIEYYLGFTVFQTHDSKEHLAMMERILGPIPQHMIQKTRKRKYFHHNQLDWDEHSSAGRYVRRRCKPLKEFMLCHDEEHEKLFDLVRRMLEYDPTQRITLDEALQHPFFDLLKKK
T13 sequence (Q76MJ5 35-926): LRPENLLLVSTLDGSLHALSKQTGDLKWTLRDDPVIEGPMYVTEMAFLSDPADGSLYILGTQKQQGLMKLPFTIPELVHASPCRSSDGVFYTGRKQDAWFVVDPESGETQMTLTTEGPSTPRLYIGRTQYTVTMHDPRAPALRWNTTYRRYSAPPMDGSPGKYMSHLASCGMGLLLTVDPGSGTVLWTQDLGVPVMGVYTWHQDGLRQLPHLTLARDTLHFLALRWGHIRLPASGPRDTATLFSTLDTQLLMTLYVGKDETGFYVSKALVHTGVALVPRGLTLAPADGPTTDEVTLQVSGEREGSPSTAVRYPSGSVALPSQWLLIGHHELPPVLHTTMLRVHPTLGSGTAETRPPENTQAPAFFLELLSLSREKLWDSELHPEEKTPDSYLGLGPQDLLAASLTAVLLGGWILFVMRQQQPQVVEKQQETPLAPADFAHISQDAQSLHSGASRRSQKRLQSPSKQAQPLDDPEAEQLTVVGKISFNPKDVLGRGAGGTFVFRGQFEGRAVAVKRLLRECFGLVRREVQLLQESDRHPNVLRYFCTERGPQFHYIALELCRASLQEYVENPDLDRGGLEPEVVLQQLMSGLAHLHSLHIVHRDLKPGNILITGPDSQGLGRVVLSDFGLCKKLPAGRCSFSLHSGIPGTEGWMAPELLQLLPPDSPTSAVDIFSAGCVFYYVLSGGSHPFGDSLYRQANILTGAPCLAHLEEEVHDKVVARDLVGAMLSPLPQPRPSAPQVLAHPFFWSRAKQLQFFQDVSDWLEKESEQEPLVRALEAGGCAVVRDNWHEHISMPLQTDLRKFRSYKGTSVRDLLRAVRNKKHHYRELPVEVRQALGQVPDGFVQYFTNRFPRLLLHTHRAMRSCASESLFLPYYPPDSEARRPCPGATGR
T9 sequence (Q00535 whole entry): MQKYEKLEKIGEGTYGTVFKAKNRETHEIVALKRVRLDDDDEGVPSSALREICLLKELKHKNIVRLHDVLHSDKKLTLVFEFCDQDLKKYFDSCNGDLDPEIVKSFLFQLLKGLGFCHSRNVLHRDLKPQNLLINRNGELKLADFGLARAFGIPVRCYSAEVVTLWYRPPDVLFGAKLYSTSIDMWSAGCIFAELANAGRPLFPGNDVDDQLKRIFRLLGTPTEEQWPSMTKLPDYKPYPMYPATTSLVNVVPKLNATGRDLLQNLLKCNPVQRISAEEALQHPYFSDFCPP
T27 sequence (Q8WXR4 whole entry): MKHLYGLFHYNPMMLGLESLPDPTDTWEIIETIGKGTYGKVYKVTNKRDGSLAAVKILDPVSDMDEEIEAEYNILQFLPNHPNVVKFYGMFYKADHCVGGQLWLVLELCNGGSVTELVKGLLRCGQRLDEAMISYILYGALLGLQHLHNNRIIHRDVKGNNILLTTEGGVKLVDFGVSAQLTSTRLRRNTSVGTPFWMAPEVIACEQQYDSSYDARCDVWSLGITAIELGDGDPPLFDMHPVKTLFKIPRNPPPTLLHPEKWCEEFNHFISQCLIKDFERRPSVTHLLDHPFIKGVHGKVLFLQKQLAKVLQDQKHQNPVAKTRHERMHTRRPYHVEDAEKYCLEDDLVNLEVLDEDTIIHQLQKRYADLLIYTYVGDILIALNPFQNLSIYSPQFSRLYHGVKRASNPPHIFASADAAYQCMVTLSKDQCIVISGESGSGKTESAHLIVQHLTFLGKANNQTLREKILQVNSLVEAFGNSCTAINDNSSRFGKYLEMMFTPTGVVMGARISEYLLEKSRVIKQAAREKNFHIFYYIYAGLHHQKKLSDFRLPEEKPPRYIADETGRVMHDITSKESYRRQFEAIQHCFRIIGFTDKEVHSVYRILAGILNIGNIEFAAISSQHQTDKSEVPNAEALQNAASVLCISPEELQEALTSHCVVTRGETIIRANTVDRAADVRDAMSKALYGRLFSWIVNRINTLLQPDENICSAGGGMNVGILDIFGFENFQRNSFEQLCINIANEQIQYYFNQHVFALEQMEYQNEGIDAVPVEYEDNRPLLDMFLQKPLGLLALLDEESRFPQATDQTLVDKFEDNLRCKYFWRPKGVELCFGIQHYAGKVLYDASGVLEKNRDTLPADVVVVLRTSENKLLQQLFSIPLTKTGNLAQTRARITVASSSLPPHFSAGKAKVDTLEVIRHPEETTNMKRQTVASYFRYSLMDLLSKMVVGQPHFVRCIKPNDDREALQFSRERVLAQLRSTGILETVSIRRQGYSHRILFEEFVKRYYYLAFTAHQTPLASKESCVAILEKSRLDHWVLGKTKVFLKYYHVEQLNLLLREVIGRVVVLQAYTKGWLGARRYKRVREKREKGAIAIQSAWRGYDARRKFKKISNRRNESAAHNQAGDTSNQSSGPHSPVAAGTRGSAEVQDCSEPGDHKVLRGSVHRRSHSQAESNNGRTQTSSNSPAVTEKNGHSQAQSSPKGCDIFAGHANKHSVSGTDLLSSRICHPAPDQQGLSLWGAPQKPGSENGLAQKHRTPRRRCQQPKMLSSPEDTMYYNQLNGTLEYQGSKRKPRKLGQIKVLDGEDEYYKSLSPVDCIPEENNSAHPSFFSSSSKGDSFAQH
T25 sequence (Q86YV6 whole entry): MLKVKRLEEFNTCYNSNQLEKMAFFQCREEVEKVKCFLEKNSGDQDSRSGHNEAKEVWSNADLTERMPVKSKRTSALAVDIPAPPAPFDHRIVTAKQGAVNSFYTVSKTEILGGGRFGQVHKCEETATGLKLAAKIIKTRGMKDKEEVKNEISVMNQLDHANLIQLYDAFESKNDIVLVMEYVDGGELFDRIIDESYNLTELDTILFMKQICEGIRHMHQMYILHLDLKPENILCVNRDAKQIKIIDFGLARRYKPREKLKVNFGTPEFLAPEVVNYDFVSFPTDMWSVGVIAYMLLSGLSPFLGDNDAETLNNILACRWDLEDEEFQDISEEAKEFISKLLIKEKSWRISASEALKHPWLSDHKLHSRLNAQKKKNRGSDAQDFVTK
T23 sequence (Q8TD08 whole entry): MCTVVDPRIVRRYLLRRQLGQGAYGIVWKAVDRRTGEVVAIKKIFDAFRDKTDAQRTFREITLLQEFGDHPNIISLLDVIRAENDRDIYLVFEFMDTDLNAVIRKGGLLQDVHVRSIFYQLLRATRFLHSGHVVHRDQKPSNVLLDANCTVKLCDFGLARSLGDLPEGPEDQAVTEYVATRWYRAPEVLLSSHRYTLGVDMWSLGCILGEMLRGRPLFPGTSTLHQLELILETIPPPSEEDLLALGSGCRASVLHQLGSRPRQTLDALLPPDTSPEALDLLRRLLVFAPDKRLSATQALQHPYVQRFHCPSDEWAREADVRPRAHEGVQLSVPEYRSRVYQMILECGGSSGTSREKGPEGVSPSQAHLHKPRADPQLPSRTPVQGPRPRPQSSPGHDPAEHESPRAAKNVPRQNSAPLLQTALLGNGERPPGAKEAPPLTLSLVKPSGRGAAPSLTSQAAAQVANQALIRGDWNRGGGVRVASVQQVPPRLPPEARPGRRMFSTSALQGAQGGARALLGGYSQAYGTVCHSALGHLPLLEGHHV
T22 sequence (P53779 whole entry): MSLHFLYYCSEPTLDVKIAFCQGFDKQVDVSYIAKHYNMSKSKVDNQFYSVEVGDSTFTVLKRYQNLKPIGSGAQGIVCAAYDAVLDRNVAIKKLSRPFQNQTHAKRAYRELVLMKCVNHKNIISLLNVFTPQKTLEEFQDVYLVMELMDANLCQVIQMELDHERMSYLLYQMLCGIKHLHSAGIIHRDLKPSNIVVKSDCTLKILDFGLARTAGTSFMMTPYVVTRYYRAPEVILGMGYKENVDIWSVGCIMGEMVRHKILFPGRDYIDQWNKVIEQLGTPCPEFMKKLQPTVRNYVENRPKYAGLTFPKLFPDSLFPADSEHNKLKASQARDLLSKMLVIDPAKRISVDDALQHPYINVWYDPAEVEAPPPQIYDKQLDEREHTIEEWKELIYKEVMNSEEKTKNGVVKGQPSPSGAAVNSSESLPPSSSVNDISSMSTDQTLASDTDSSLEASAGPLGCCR
T32 sequence (Q9BYT3 whole entry): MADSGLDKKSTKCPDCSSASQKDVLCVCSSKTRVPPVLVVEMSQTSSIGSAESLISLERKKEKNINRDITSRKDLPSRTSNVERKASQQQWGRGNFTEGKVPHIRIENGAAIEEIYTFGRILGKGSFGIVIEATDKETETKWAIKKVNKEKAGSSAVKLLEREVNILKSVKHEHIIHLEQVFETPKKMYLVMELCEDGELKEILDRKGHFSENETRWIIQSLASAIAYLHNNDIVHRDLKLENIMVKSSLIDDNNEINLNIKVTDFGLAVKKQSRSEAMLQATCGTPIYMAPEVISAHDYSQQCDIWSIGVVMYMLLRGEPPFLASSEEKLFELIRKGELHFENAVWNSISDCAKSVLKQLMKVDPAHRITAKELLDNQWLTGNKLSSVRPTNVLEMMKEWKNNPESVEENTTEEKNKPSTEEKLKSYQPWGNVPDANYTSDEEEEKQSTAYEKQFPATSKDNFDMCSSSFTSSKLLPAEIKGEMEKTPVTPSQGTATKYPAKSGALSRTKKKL

NS(=O)(=O)c1ccc(Nc2ncc3cc4n(c3n2)C2(CCCCC2)C(=O)NN4)cc1 [INX-315]
inhibition at 0.1 µM [1]: -5%
inhibition at 0.1 µM [2]: -1%
inhibition at 0.1 µM [3]: 9%
inhibition at 0.1 µM [4]: 36%
inhibition at 0.1 µM [5]: 2%
inhibition at 0.1 µM [6]: 39%
inhibition at 0.1 µM [7]: 64%
inhibition at 0.1 µM [8]: 98%
inhibition at 0.1 µM [9]: 80%
inhibition at 0.1 µM [10]: -2%
inhibition at 0.1 µM [11]: 11%
inhibition at 0.1 µM [12]: -4%
inhibition at 0.1 µM [13]: 2%
% Inhibition Avg [14]: 36%
inhibition at 0.1 µM [15]: -5%
inhibition at 0.1 µM [16]: 28%
inhibition at 0.1 µM [17]: 34%
inhibition at 0.1 µM [18]: 31%
inhibition at 0.1 µM [19]: 8%
inhibition at 0.1 µM [20]: 13%
inhibition at 0.1 µM [21]: -2%
inhibition at 0.1 µM [22]: 10%
inhibition at 0.1 µM [23]: 12%
inhibition at 0.1 µM [24]: 87%
inhibition at 0.1 µM [25]: 4%
inhibition at 0.1 µM [26]: 20%
inhibition at 0.1 µM [27]: 6%
inhibition at 0.1 µM [28]: 0%
inhibition at 0.1 µM [29]: 35%
inhibition at 0.1 µM [30]: -1%
inhibition at 0.1 µM [31]: 3%
inhibition at 0.1 µM [32]: -1%
inhibition at 0.1 µM [33]: 5%
inhibition at 0.1 µM [34]: 2%
inhibition at 0.1 µM [35]: 0%
inhibition at 0.1 µM [36]: 49%
inhibition at 0.1 µM [37]: 3%
inhibition at 0.1 µM [38]: 3%
